Measurements published in PMC10503797, “Allosteric modulator potentiates β2AR agonist–promoted bronchoprotection in asthma models” (The Journal of Clinical Investigation, 2023).
Where “and” joins values, the source holds several entries; their conditions need not be identical. Equal entries are not always repeated. Where two headings read alike, the source gives them in different places.

Key:
[1] = system: guinea pig lung slices; test: Methacholine-induced airway constriction in guinea pig lung slices; assay type: cell-based; conditions: for EC50: read-out: MCh EC50
Protocol: All curve fits were generated using the software program GraphPad Prism. Data are represented as mean ± SEM obtained from 6 guinea pigs.
Precision-cut lung slices were prepared as described previously ([61], [62]). A 3% solution of low melting-point agarose (Gerbu Biotechnik GmbH) in ultrapure water was prepared by heating it a microwave until fully dissolved. […] After filling, the lungs were covered with ice for 30 minutes to solidify the agarose for slicing. […] Lung slices were cut at a thickness of 500 μm and washed several times with slicing buffer to remove debris and washout the isoproterenol. Slices were incubated overnight in a 60 mm dish in sterile incubation buffer: MEM composed of lung slice buffer supplemented with 0.5 mM sodium pyruvate, 1 mM glutamine (Gibco), MEM-amino acids mixture (1:50), MEM-vitamins mixture (1:100; Gibco), and penicillin-streptomycin (1:100; Gibco), pH = 7.2, at 37°C in a CO2- and humidity-controlled atmosphere.
After washing the slices in medium, individual guinea pig lung slices were mechanically maintained with a Teflon ring with an inner diameter of 7 mm and covered with 1 mL of incubation buffer. […] Image acquisition software (NIS-Elements, Nikon) was used to quantify airway luminal area. Images of the airways were acquired every 2 seconds during the whole course of the experiment, starting 2 minutes before the addition of any agent to allow for baseline measurements of the airway caliber. For each methacholine or ovalbumin concentration, the maximal airway constriction was expressed as percentage of the initial (baseline) airway luminal area and plotted against that concentration.

[2] = system: human lung slices; test: Methacholine-induced airway constriction in human lung slices; assay type: cell-based; parameters: key to MCh-induced airway constriction response (Figure 7): % of initial airway luminal area; conditions: for MCh-induced airway constriction response (Figure 7): 1 µM Fenoterol + 25 µM Cmpd-6, donor 1-4
From the text: All curve fits were generated using the software program GraphPad Prism. Data are represented as mean ± SEM of 4 human donors (see Table 3 for statistical analyses).
Precision-cut human lung slices were purchased from AnaBios and stored in a liquid nitrogen tank. Lung tissue was obtained postmortem and consent for research was obtained by AnaBios for all donors. Characteristics of the donors of the lung tissue are shown in Supplemental Table 2. Slices were rapidly thawed following instructions from AnaBios.
After washing, individual human lung slices were mechanically maintained with a Teflon ring with an inner diameter of 7 mm and covered with 1 mL of incubation buffer. […] Image acquisition software (NIS-Elements, Nikon) was used to quantify airway luminal area. […] Airway constriction in response to each methacholine concentration was expressed as percentage of the initial airway luminal area.

[3] = biological target: guinea pig β2AR (Cavia porcellus, UniProt Q8K4Z4); test: 125I-CYP radioligand competition binding, guinea pig β2AR; conditions: for 125I-CYP binding, Alb competition curve (Figure 4E): Cmpd-6 [25 uM]
guinea pig β2AR, sequence (Q8K4Z4 whole entry): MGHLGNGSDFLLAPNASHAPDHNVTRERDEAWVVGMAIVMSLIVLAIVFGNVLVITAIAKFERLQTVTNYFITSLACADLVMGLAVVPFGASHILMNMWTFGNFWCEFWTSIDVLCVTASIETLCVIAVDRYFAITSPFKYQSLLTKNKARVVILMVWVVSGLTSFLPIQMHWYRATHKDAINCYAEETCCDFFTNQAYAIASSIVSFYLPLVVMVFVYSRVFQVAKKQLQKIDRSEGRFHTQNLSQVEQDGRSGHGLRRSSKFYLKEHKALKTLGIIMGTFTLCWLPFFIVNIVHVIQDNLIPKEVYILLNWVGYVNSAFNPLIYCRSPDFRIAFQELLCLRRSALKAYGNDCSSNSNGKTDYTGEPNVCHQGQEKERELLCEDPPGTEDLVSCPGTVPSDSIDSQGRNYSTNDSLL

## COc1ccc(Sc2ccc(S(=O)(=O)N(C)C(C)C)cc2C(=O)N[C@H](CC(N)=O)Cc2ccc(C(C)(C)C)cc2)cc1 [Cmpd-6]
[1]; 1 μM Fenoterol + 25 μM Cmpd-6
  MCh Emax: 112.3 ± 9.5%
  EC50: 590 ± 90 nM
[1]; 10 μM Fenoterol + 25 μM Cmpd-6
  MCh Emax: 100.9 ± 3.2%
  EC50: 980 ± 120 nM
[1]; 25 μM Cmpd-6
  Augmentation of airway smooth muscle responsiveness to fenoterol: 10 fold
[1]; 25 μM Cmpd-6 alone
  MCh Emax: 100.0 ± 2.0%
  EC50: 280 ± 50 nM
[2]; 1 μM Fenoterol + 25 μM Cmpd-6
  MCh Emax: 26.5 ± 4.4^A %
  MCh pD2: 5.52 ± 0.24^B –log M
[2]; -Log [MCh] 3.5
  MCh-induced airway constriction response (Figure 7): 81.9 and 70.9 and 77.9 and 77.7
[2]; -Log [MCh] 4
  MCh-induced airway constriction response (Figure 7): 85.4 and 70.2 and 85.0 and 81
[2]; -Log [MCh] 4.5
  MCh-induced airway constriction response (Figure 7): 87.4 and 88.5 and 81.1 and 82.0
[2]; -Log [MCh] 5
  MCh-induced airway constriction response (Figure 7): 88.4 and 90.1 and 84.2 and 85.0
[2]; -Log [MCh] 5.5
  MCh-induced airway constriction response (Figure 7): 89.6 and 91.5 and 87.5 and 90.7
[2]; -Log [MCh] 6
  MCh-induced airway constriction response (Figure 7): 90.7 and 94.3 and 90.0 and 93.1
[2]; -Log [MCh] 6.5
  MCh-induced airway constriction response (Figure 7): 93.1 and 102.4 and 95.5 and 94.0
[2]; -Log [MCh] 7
  MCh-induced airway constriction response (Figure 7): 93.8 and 102.2 and 98.0 and 97.4
[2]; -Log [MCh] 7.5
  MCh-induced airway constriction response (Figure 7): 95.1 and 104.8 and 98.8 and 98.9
[2]; -Log [MCh] 8
  MCh-induced airway constriction response (Figure 7): 99.2 and 103.1 and 100.8 and 101.6
[2]; -Log [MCh] 8.5
  MCh-induced airway constriction response (Figure 7): 96.5 and 109.1 and 101.7 and 103.0
[2]; -Log [MCh] 9
  MCh-induced airway constriction response (Figure 7): 95.6 and 107.7 and 98.0 and 98.3
[2]; 25 μM Cmpd-6 + 1 μM fenoterol vs 10 μM fenoterol
  Enhancement of the β2-agonist responsiveness: 10 fold
[3]; Cmpd-6 [1 uM], Log [ISO] (M) -4.49485
  125I-CYP binding, ISO competition curve (Figure 4B): 1.389 and 1.151 and 1.419 and 1.486 and 1.375
[3]; Cmpd-6 [1 uM], Log [ISO] (M) -5.69897
  125I-CYP binding, ISO competition curve (Figure 4B): 11.9867 and 9.239 and 16.2618 and 13.198 and 14.4523
[3]; Cmpd-6 [1 uM], Log [ISO] (M) -6.90309
  125I-CYP binding, ISO competition curve (Figure 4B): 60.3981 and 44.4601 and 52.8751 and 61.5704 and 63.6634
[3]; Cmpd-6 [1 uM], Log [ISO] (M) -7.50515
  125I-CYP binding, ISO competition curve (Figure 4B): 85.4929 and 72.4739 and 91.4188 and 87.166 and 89.8825
[3]; Cmpd-6 [1 uM], Log [ISO] (M) -8.70927
  125I-CYP binding, ISO competition curve (Figure 4B): 98.0858 and 100.299 and 96.4593 and 97.8108 and 99.3392
[3]; Cmpd-6 [1 uM], Log [ISO] (M) -9.31133
  125I-CYP binding, ISO competition curve (Figure 4B): 102.219 and 97.3579 and 98.2032 and 100.895 and 101.354
[3]; Cmpd-6 [1 uM], Log [ISO] (M) -9.91339
  125I-CYP binding, ISO competition curve (Figure 4B): 101.18 and 98.3743 and 98.3138 and 101.016 and 101.111
[3]; Cmpd-6 [1 uM], Log [ISO] (M) -11 (DMSO)
  125I-CYP binding, ISO competition curve (Figure 4B): 99.0003 and 102.579 and 98.6421 and 100.222 and 97.6049
[3]; Cmpd-6 [5 uM], Log [ISO] (M) -7.50515
  125I-CYP binding, ISO competition curve (Figure 4B): 44.1147 and 80.7404 and 64.2013 and 72.7308 and 72.5102
[3]; Cmpd-6 [5 uM], Log [ISO] (M) -8.70927
  125I-CYP binding, ISO competition curve (Figure 4B): 91.2908 and 98.8095 and 98.5241 and 100.522 and 98.3672
[3]; Cmpd-6 [5 uM], Log [ISO] (M) -9.31133
  125I-CYP binding, ISO competition curve (Figure 4B): 97.2169 and 98.4924 and 100.303 and 100.814 and 103.36
[3]; Cmpd-6 [5 uM], Log [ISO] (M) -9.91339
  125I-CYP binding, ISO competition curve (Figure 4B): 98.5199 and 97.6422 and 100.698 and 101.104 and 99.2184
[3]; Cmpd-6 [5 uM], Log [ISO] (M) -11 (DMSO)
  125I-CYP binding, ISO competition curve (Figure 4B): 103.509 and 97.6444 and 99.5117 and 98.3736 and 96.5817
[3]; Log [Alb] (M) -4.49485
  125I-CYP binding, Alb competition curve (Figure 4E): 2.733 and 2.385 and 4.038 and 2.554
[3]; Log [Alb] (M) -5.09691
  125I-CYP binding, Alb competition curve (Figure 4E): 4.618 and 4.73 and 8.896 and 4.926
[3]; Log [Alb] (M) -6.30103
  125I-CYP binding, Alb competition curve (Figure 4E): 28.5337 and 34.114 and 50.4761 and 33.3615
[3]; Log [Alb] (M) -6.90309
  125I-CYP binding, Alb competition curve (Figure 4E): 59.5755 and 62.9432 and 76.3108 and 62.8869
[3]; Log [Alb] (M) -7.50515
  125I-CYP binding, Alb competition curve (Figure 4E): 81.8149 and 87.2785 and 93.3109 and 87.5413
[3]; Log [Alb] (M) -8.10721
  125I-CYP binding, Alb competition curve (Figure 4E): 96.1096 and 95.2866 and 96.5894 and 97.0774
